In patent publication US8314253B2, “Bridged tetrahydronaphthalene derivatives” (Actelion Pharmaceuticals Ltd., priority 2008, dated 2012):

test system: human Cav3.1 Cav3.2 or Cav3.3 channel; assay: In vitro assay T channel (FLIPR, Ca2+-induced fluorescence); assay type: cell-based; details: HEK293 cells expressing human Cav3.1 Cav3.2 or Cav3.3; 10 mM Ca2+; determined up to 10 μM; read-out: T channel antagonistic activity IC50
Protocol: Human embryonic kidney (HEK293) cells expressing the human Cav3.1 Cav3.2 or Cav3.3 channel, respectively, are grown in culture medium (DMEM containing 10% heat-inactivated fetal calf serum (FCS), 100 U/ml penicillin, 100 μg/ml streptomycin and 1 mg/ml G418). The cells are seeded at 20.000 cells/well into 384-well black clear bottom sterile plates (poly-L-lysine-coated, Becton Dickinson). The seeded plates are incubated overnight at 37° C. in 5% CO2. The Ca^2+ solution is prepared as 100 mM stock solution in 100 mM tetraethylammoniumchloride (TEA-chloride), 50 mM HEPES, 2.5 mM CaCl2, 5 mM KCl, 1 mM MgCl2, adjusted to pH 7.2 with TEA-hydroxide, for use in the assay at a final concentration of 10 mM. […] Fluorescence is measured for each well at 2 second intervals for 8 minutes, and the area under the curve of each fluorescence peak is compared to the area of the fluorescence peak induced by 10 mM Ca^2+ with vehicle in place of antagonist.

Row | IC50 | SMILES
1 | 2260 nM | O[C@@]1(CCN2CCCC(c3nc4ccccc4[nH]3)C2)C[C@H]2CC[C@@H]1c1ccccc12 (relative stereo) [Example 7, (1R*,8R*,9R*)-9-{2-[(3RS)-3-(1H-Benzoimidazol-2-yl)-piperidin-1-yl]-ethyl}-tricyclo[6.2.2.0^2,7]dodeca-2,4,6-trien-9-ol]
2 | 1110 nM | CC(C)C(=O)O[C@@]1(CCN2CCCC(c3nc4ccccc4[nH]3)C2)C[C@H]2CC[C@@H]1c1ccccc12 (relative stereo) [Example 7A, Isobutyric acid (1R*,8R*,9R*)-9-{2-[(3RS)-3-(1H-benzoimidazol-2-yl)-piperidin-1-yl]-ethyl}-tricyclo[6.2.2.0^2,7]dodeca-2,4,6-trien-9-yl ester]
3 | 2250 nM | CN(CCCc1nc2ccccc2[nH]1)CCC1(O)CC2CCC1c1ccccc12 (single isomer, unassigned) [Example 3, (1S,8S,9S)-9-(2-{[3-(1H-Benzoimidazol-2-yl)-propyl]-methyl-amino}-ethyl)-tricyclo[6.2.2.0^2,7]dodeca-2,4,6-trien-9-ol or (1R,8R,9R)-9-(2-{[3-(1H-benzoimidazol-2-yl)-propyl]-methyl-amino}-ethyl)-tricyclo[6.2.2.0^2,7]dodeca-2,4,6-trien-9-ol]

More lines, now with the values behind:

Row | SMILES | IC50
4 | CC(C)C(=O)O[C@]1(CCN(C)CCCc2nc3ccccc3[nH]2)C[C@H]2CC[C@@H]1c1ccccc12 (relative stereo) [Example 5A, rac-Isobutyric acid (1R*,8R*,9S*)-9-(2-{[3-(1H-benzoimidazol-2-yl)-propyl]-methyl-amino}-ethyl)-tricyclo[6.2.2.0^2,7]dodeca-2,4,6-trien-9-yl ester] | 5180 nM
5 | COCC(=O)O[C@@]1(CCN(C)CCCc2nc3ccccc3[nH]2)C[C@H]2CCC[C@@H]1c1ccccc12 (relative stereo) [Example 10A, rac-Methoxy-acetic acid (1R*,8R*,12R*)-12-(2-{[3-(1H-benzoimidazol-2-yl)-propyl]-methyl-amino}-ethyl)-tricyclo[6.3.2.0^2,7]trideca-2,4,6-trien-12-yl ester] | 814 nM
6 | CC(C)C(=O)OC1(CCN(C)CCCc2nc3ccccc3[nH]2)CC2CCC1c1ccccc12 [Example 2A, Isobutyric acid (1S,8S,9S)-9-(2-{[3-(1H-benzoimidazol-2-yl)-propyl]-methyl-amino}-ethyl)-tricyclo[6.2.2.0^2,7]dodeca-2,4,6-trien-9-yl ester or isobutyric acid (1R,8R,9R)-9-(2-{[3-(1H-benzoimidazol-2-yl)-propyl]-methyl-amino}-ethyl)-tricyclo[6.2.2.0^2,7]dodeca-2,4,6-trien-9-yl ester] | 1790 nM
7 | CC(C)C(=O)OC1(CCN(C)CCCc2nc3ccccc3[nH]2)CC2CCCC1c1ccccc12 [Example 12A, Isobutyric acid (1S,8S,12S)-12-(2-{[3-(1H-Benzoimidazol-2-yl)-propyl]-methyl-amino}-ethyl)-tricyclo[6.3.2.0^2,7]trideca-2,4,6-trien-12-yl ester or isobutyric acid (1R,8R,12R)-12-(2-{[3-(1H-benzoimidazol-2-yl)-propyl]-methyl-amino}-ethyl)-tricyclo[6.3.2.0^2,7]trideca-2,4,6-trien-12-yl ester] | 783 nM
8 | CN(CCCc1nc2ccccc2[nH]1)CCC1(O)CC2CCCC1c1ccccc12 (single isomer, unassigned) [Example 11, (1S,8S,12S)-12-(2-{[3-(1H-Benzoimidazol-2-yl)-propyl]-methyl-amino}-ethyl)-tricyclo[6.3.2.0^2,7]trideca-2,4,6-trien-12-ol or (1R,8R,12R)-12-(2-{[3-(1H-benzoimidazol-2-yl)-propyl]-methyl-amino}-ethyl)-tricyclo[6.3.2.0^2,7]trideca-2,4,6-trien-12-ol] | 521 nM
